Data from PubChem BioAssay (NCI).
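Method: 48-hour compound exposure of cells in 96-well plates, five concentrations, linear interpolation of endpoints. TGI is the concentration that stops growth completely.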

Columns and labels:
Assay in all cases: inhibition of tumour cell growth, NCI panel, 48 h
786-0 renal = tested on: 786-0 renal
A498 renal = tested on: A498 renal
A549 NSCLC = tested on: A549 NSCLC
ACHN renal = tested on: ACHN renal
BT-549 breast = tested on: BT-549 breast
CAKI-1 renal = tested on: CAKI-1 renal
CCRF-CEM leukemia = tested on: CCRF-CEM leukemia
COLO 205 colon = tested on: COLO 205 colon
DU-145 prostate = tested on: DU-145 prostate
EKVX NSCLC = tested on: EKVX NSCLC
HCT-116 colon = tested on: HCT-116 colon
HCT-15 colon = tested on: HCT-15 colon
HL-60(TB) leukemia = tested on: HL-60(TB) leukemia
HOP-62 NSCLC = tested on: HOP-62 NSCLC
HOP-92 NSCLC = tested on: HOP-92 NSCLC
HS 578T breast = tested on: HS 578T breast
HT29 colon = tested on: HT29 colon
IGROV1 ovarian = tested on: IGROV1 ovarian
K-562 leukemia = tested on: K-562 leukemia
KM12 colon = tested on: KM12 colon
LOX IMVI melanoma = tested on: LOX IMVI melanoma
M14 melanoma = tested on: M14 melanoma
MCF7 breast = tested on: MCF7 breast
MDA-MB-231 breast = tested on: MDA-MB-231 breast
MDA-MB-435 = tested on: MDA-MB-435
MDA-N = tested on: MDA-N
MOLT-4 leukemia = tested on: MOLT-4 leukemia
NCI-H226 lung = tested on: NCI-H226 lung
NCI-H23 lung = tested on: NCI-H23 lung
NCI-H460 lung = tested on: NCI-H460 lung
NCI/ADR-RES ovarian = tested on: NCI/ADR-RES ovarian
OVCAR-3 ovarian = tested on: OVCAR-3 ovarian
OVCAR-5 ovarian = tested on: OVCAR-5 ovarian
OVCAR-8 ovarian = tested on: OVCAR-8 ovarian
PC-3 prostate = tested on: PC-3 prostate
RPMI-8226 leukemia = tested on: RPMI-8226 leukemia
SF-268 CNS = tested on: SF-268 CNS
SF-295 CNS = tested on: SF-295 CNS
SF-539 CNS = tested on: SF-539 CNS
SK-MEL-2 melanoma = tested on: SK-MEL-2 melanoma
SK-MEL-28 melanoma = tested on: SK-MEL-28 melanoma
SK-MEL-5 melanoma = tested on: SK-MEL-5 melanoma
SK-OV-3 ovarian = tested on: SK-OV-3 ovarian
SN12C renal = tested on: SN12C renal
SNB-19 CNS = tested on: SNB-19 CNS
SNB-75 CNS = tested on: SNB-75 CNS
SR leukemia = tested on: SR leukemia
SW-620 colon = tested on: SW-620 colon
T-47D breast = tested on: T-47D breast
TK-10 renal = tested on: TK-10 renal
U251 CNS = tested on: U251 CNS
UACC-257 melanoma = tested on: UACC-257 melanoma
UACC-62 melanoma = tested on: UACC-62 melanoma
UO-31 renal = tested on: UO-31 renal
HCC-2998 colon = tested on: HCC-2998 colon
MALME-3M melanoma = tested on: MALME-3M melanoma
NCI-H522 lung = tested on: NCI-H522 lung
OVCAR-4 ovarian = tested on: OVCAR-4 ovarian
RXF 393 renal = tested on: RXF 393 renal

NC(=S)Nc1[nH]c(=S)nc2[nH]ccc12
TGI (786-0 renal): > 100 µM | TGI (A498 renal): > 100 µM | TGI (A549 NSCLC): > 100 µM | TGI (ACHN renal): > 100 µM | TGI (BT-549 breast): > 100 µM | TGI (CAKI-1 renal): > 100 µM | TGI (CCRF-CEM leukemia): > 100 µM | TGI (COLO 205 colon): > 100 µM | TGI (DU-145 prostate): > 100 µM | TGI (EKVX NSCLC): > 100 µM | TGI (HCT-116 colon): > 100 µM | TGI (HCT-15 colon): > 100 µM | TGI (HL-60(TB) leukemia): 53.2 µM | TGI (HOP-62 NSCLC): > 100 µM | TGI (HOP-92 NSCLC): > 100 µM | TGI (HS 578T breast): > 100 µM | TGI (HT29 colon): > 100 µM | TGI (IGROV1 ovarian): > 100 µM | TGI (K-562 leukemia): > 100 µM | TGI (KM12 colon): > 100 µM | TGI (LOX IMVI melanoma): > 100 µM | TGI (M14 melanoma): > 100 µM | TGI (MCF7 breast): > 100 µM | TGI (MDA-MB-231 breast): > 100 µM | TGI (MDA-MB-435): > 100 µM | TGI (MDA-N): > 100 µM | TGI (MOLT-4 leukemia): > 100 µM | TGI (NCI-H226 lung): > 100 µM | TGI (NCI-H23 lung): > 100 µM | TGI (NCI-H460 lung): > 100 µM | TGI (NCI/ADR-RES ovarian): > 100 µM | TGI (OVCAR-3 ovarian): 94.3 µM | TGI (OVCAR-5 ovarian): > 100 µM | TGI (OVCAR-8 ovarian): > 100 µM | TGI (PC-3 prostate): > 100 µM | TGI (RPMI-8226 leukemia): > 100 µM | TGI (SF-268 CNS): > 100 µM | TGI (SF-295 CNS): > 100 µM | TGI (SF-539 CNS): > 100 µM | TGI (SK-MEL-2 melanoma): > 100 µM | TGI (SK-MEL-28 melanoma): > 100 µM | TGI (SK-MEL-5 melanoma): > 100 µM | TGI (SK-OV-3 ovarian): > 100 µM | TGI (SN12C renal): > 100 µM | TGI (SNB-19 CNS): > 100 µM | TGI (SNB-75 CNS): 62.9 µM | TGI (SR leukemia): > 100 µM | TGI (SW-620 colon): > 100 µM | TGI (T-47D breast): > 100 µM | TGI (TK-10 renal): > 100 µM | TGI (U251 CNS): > 100 µM | TGI (UACC-257 melanoma): > 100 µM | TGI (UACC-62 melanoma): > 100 µM | TGI (UO-31 renal): > 100 µM

CCOC(=O)C(=Cc1ccccc1Cl)C(=O)OCC
TGI (786-0 renal): 2.82 µM | TGI (A498 renal): 5 µM | TGI (A549 NSCLC): 5.21 µM | TGI (ACHN renal): 7.62 µM | TGI (BT-549 breast): 4.59 µM | TGI (CAKI-1 renal): 4.27 µM | TGI (CCRF-CEM leukemia): 4.69 µM | TGI (COLO 205 colon): 3.02 µM | TGI (DU-145 prostate): 3.96 µM | TGI (EKVX NSCLC): 7.39 µM | TGI (HCC-2998 colon): > 10 µM | TGI (HCT-116 colon): 1.88 µM | TGI (HCT-15 colon): 4.83 µM | TGI (HL-60(TB) leukemia): 3.83 µM | TGI (HOP-62 NSCLC): 4.05 µM | TGI (HOP-92 NSCLC): 4.96 µM | TGI (HS 578T breast): > 10 µM | TGI (HT29 colon): 3.3 µM | TGI (IGROV1 ovarian): 7.31 µM | TGI (K-562 leukemia): 5.28 µM | TGI (KM12 colon): 2.67 µM | TGI (LOX IMVI melanoma): 4.5 µM | TGI (M14 melanoma): 2.95 µM | TGI (MALME-3M melanoma): 3.58 µM | TGI (MDA-MB-231 breast): 3.39 µM | TGI (MDA-MB-435): 3.29 µM | TGI (MDA-N): 4.93 µM | TGI (MOLT-4 leukemia): 6.27 µM | TGI (NCI-H226 lung): 5.56 µM | TGI (NCI-H23 lung): 3.83 µM | TGI (NCI-H460 lung): 7.22 µM | TGI (NCI-H522 lung): 4.02 µM | TGI (NCI/ADR-RES ovarian): 5.97 µM | TGI (OVCAR-3 ovarian): 2.76 µM | TGI (OVCAR-4 ovarian): 5.05 µM | TGI (OVCAR-5 ovarian): 4.13 µM | TGI (OVCAR-8 ovarian): 2.12 µM | TGI (PC-3 prostate): 4.3 µM | TGI (RPMI-8226 leukemia): 4.87 µM | TGI (RXF 393 renal): 3.78 µM | TGI (SF-268 CNS): 6.05 µM | TGI (SF-295 CNS): 6.31 µM | TGI (SF-539 CNS): 4.13 µM | TGI (SK-MEL-2 melanoma): 4.59 µM | TGI (SK-MEL-28 melanoma): 3.53 µM | TGI (SK-MEL-5 melanoma): 3.6 µM | TGI (SK-OV-3 ovarian): > 10 µM | TGI (SN12C renal): 3.91 µM | TGI (SNB-19 CNS): 3.53 µM | TGI (SNB-75 CNS): 0.617 µM | TGI (SR leukemia): > 10 µM | TGI (SW-620 colon): 2.6 µM | TGI (T-47D breast): 8.86 µM | TGI (U251 CNS): 3.07 µM | TGI (UACC-257 melanoma): 3.21 µM | TGI (UACC-62 melanoma): 3.67 µM | TGI (UO-31 renal): 3.2 µM

CC(C)C[C@@H](NC(=O)[C@@H](Cc1cccc2ccccc12)NC(=O)N1CCOCC1)B(O)O
TGI (A498 renal): 93.8 µM | TGI (A549 NSCLC): > 100 µM | TGI (ACHN renal): > 100 µM | TGI (BT-549 breast): > 100 µM | TGI (CAKI-1 renal): > 100 µM | TGI (COLO 205 colon): > 100 µM | TGI (DU-145 prostate): > 100 µM | TGI (HCC-2998 colon): > 100 µM | TGI (HCT-116 colon): > 100 µM | TGI (HCT-15 colon): > 100 µM | TGI (HL-60(TB) leukemia): > 100 µM | TGI (HOP-62 NSCLC): > 100 µM | TGI (HOP-92 NSCLC): > 100 µM | TGI (HS 578T breast): > 100 µM | TGI (HT29 colon): > 100 µM | TGI (IGROV1 ovarian): > 100 µM | TGI (K-562 leukemia): > 100 µM | TGI (KM12 colon): > 100 µM | TGI (LOX IMVI melanoma): > 100 µM | TGI (M14 melanoma): 78.7 µM | TGI (MDA-MB-231 breast): > 100 µM | TGI (MDA-MB-435): 42.9 µM | TGI (MDA-N): 41.8 µM | TGI (MOLT-4 leukemia): 96.5 µM | TGI (NCI-H226 lung): 36.8 µM | TGI (NCI-H23 lung): > 100 µM | TGI (NCI-H460 lung): > 100 µM | TGI (NCI/ADR-RES ovarian): > 100 µM | TGI (OVCAR-3 ovarian): 85.8 µM | TGI (OVCAR-4 ovarian): > 100 µM | TGI (OVCAR-5 ovarian): > 100 µM | TGI (OVCAR-8 ovarian): > 100 µM | TGI (PC-3 prostate): > 100 µM | TGI (RPMI-8226 leukemia): > 100 µM | TGI (SF-268 CNS): > 100 µM | TGI (SF-539 CNS): > 100 µM | TGI (SK-MEL-2 melanoma): > 100 µM | TGI (SK-MEL-28 melanoma): 64.1 µM | TGI (SN12C renal): > 100 µM | TGI (SNB-19 CNS): > 100 µM | TGI (SR leukemia): > 100 µM | TGI (T-47D breast): > 100 µM | TGI (TK-10 renal): 90.7 µM | TGI (U251 CNS): > 100 µM | TGI (UACC-257 melanoma): > 100 µM | TGI (UACC-62 melanoma): > 100 µM | TGI (UO-31 renal): > 100 µM
